Test results published in EP4603105A1, “PHARMACEUTICAL COMPOSITION CONTAINING CYCLIC COMPOUND HAVING SELECTIVE KRAS INHIBITORY EFFECT AGAINST HRAS AND NRAS” (CHUGAI SEIYAKU KABUSHIKI KAISHA, priority 2022, dated 2024).
Where two headings read alike, the source gives them in different places.

Columns and labels:
[1] = biological target: GDP-bound NRAS wild-type protein (Homo sapiens, UniProt P01111); assay: Binding to NRAS by surface plasmon resonance (SPR), KD and KD ratio to KRAS
Method in brief: (§1)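 GDP-bound biotin-Avi RAS captured at ~100–300 RU, 30°C, pH 7.4 HBS containing 10 µM GDP, 10 mM MgCl2, 1 mM DTT, 0.01% Tween 20 and 4% DMSO. KD by 1:1 fitting.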

[2] = biological target: GDP-bound KRAS wild-type protein (Homo sapiens, UniProt P01116); assay: Binding to KRAS by surface plasmon resonance (SPR), dissociation constant KD
GDP-bound KRAS wild-type protein, sequence (P01116 1-188 isoform P01116-2): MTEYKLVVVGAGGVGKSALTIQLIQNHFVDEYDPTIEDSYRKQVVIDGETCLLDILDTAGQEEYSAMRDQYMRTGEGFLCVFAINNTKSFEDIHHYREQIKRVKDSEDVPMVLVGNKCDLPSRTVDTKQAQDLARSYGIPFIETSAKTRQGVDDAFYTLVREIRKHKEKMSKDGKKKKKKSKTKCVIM
Method in brief: as §1

[3] = system: human lung cancer strain NCI-H441; assay: NCI-H441 cell proliferation inhibitory activity (CellTiter-Glo, 4 days); type: cell-based; conditions: read-out: NCl-H441 IC50
Method in brief: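 Readout: […] after the ATP-based reagent. Compound: serial dilutions in dimethyl sulfoxide.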

HRAS wild-type protein = HRAS wild-type protein (Homo sapiens, UniProt P01112); assay: Binding to HRAS by surface plasmon resonance (SPR), KD and KD ratio to KRAS
HRAS wild-type protein, sequence (P01112 whole entry): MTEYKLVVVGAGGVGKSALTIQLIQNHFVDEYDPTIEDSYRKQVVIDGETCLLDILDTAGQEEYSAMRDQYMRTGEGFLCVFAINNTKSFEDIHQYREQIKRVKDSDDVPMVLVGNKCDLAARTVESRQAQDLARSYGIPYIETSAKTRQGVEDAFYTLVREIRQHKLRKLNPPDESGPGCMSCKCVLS
Method in brief: as §1

[4] = ratio of KD with respect to GDP-bound NRAS wild-type protein to KD with respect to KRAS
[5] = Single Cycle Kinetics, 1:1 binding model
[6] = 50% proliferation inhibitory concentration, four days
[7] = ratio of KD with respect to HRAS wild-type protein to KD with respect to KRAS
[8] = ratio of KD for GDP-bound NRAS wild-type protein to KD for KRAS
[9] = ratio of KD for HRAS wild-type protein to KD for KRAS

GDP-bound NRAS wild-type protein, sequence (P01111 whole entry): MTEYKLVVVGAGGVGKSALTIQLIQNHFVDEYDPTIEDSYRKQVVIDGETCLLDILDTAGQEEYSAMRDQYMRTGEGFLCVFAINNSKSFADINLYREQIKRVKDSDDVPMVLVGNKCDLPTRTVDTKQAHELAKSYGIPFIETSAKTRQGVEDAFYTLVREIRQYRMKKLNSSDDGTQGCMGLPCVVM

Row | SMILES | Kd [2, 5] [nM] | IC50 [3, 6] [nM] | Kd ([2]; Single Cycle Kinetics) [nM] | IC50 ([3]; NCI-H441 cells, 4 days) [nM] | Kd ([2]; 1:1 binding model) [nM] | NRAS /KRAS [1, 4] | HRAS /KRAS (HRAS wild-type protein; [7]) | NRAS /KRAS [1, 8] | HRAS /KRAS (HRAS wild-type protein; [9])
1 | CCO[C@@H]1C[C@H]2C(=O)NC3(CCCC3)C(=O)N(C)[C@@H](C3CCCC3)C(=O)N(C)[C@H](C(=O)N(C)C)CC(=O)N(C)[C@@H](CC(C)C)C(=O)N[C@@H]([C@@H](C)CC)C(=O)N(C)CC(=O)N(C)[C@H]3C/C=C\CCN(C3=O)[C@@H](CC3CCC(F)(F)CC3)C(=O)N(C)CC(=O)N[C@@H](CCc3cc(F)c(C(F)(F)F)c(F)c3)C(=O)N2C1 [PP1459] | 0.2 | 38.6 | – | – | – | A (a compound having 10 or more and less than 20 is denoted as A) | A (a compound having 10 or more and less than 20 is denoted as A) | – | –
2 | CCO[C@@H]1C[C@H]2C(=O)OC3(CCC3)C(=O)N(C)[C@@H](C3CCCC3)C(=O)N(C)[C@H](C(=O)N(C)C)CC(=O)N(C)[C@@H](CC(C)C)C(=O)N[C@@H]([C@@H](C)CC)C(=O)N3CCC[C@H]3C(=O)N(C)[C@H]3C/C=C\CCN(C3=O)[C@@H](Cc3ccc(C)cc3)C(=O)N(C)CC(=O)N[C@@H](CCc3ccc(C(F)(F)F)c(OC)c3)C(=O)N2C1 [PP3380] | – | – | 1.3 | 28.9 | – | – | – | A (a compound having 10 or more and less than 20 is denoted as A) | B (a compound having 3 or more and less than 10 is denoted as B)
3 | CCO[C@@H]1C[C@H]2C(=O)NC3(CCCC3)C(=O)N(C)[C@@H](C3CCCC3)C(=O)N(C)[C@H](C(=O)N(C)C)CC(=O)N(C)[C@@H](C)C(=O)N[C@@H]([C@@H](C)CC)C(=O)N(C)CC(=O)N(C)[C@H]3C/C=C\CCN(C3=O)[C@@H](CC3CCC(F)(F)CC3)C(=O)N(C)CC(=O)N[C@@H](CCc3cc(F)c(C(F)(F)F)c(F)c3)C(=O)N2C1 [PP1456] | 0.12 | 90 | – | – | – | A (a compound having 10 or more and less than 20 is denoted as A) | A (a compound having 10 or more and less than 20 is denoted as A) | – | –
4 | CCC[C@H]1C(=O)N[C@@H]([C@@H](C)CC)C(=O)N2CCCCC[C@H]2C(=O)N(C)[C@H]2C/C=C\CCN(C2=O)[C@@H](Cc2ccc(C)cc2)C(=O)N(C)CC(=O)N[C@@H](CCc2ccc(C(F)(F)F)c(OC)c2)C(=O)N2C[C@H](OCC)C[C@H]2C(=O)N(C)C2(CCC2)C(=O)N(C)[C@@H](C2CCCC2)C(=O)N(C)[C@H](C(=O)N(C)C)CC(=O)N1C [PP3279] | – | – | 4.5 | 144 | – | – | – | A (a compound having 10 or more and less than 20 is denoted as A) | B (a compound having 3 or more and less than 10 is denoted as B)
5 | CCCOC[C@H]1C(=O)N[C@@H](C2CCCC2)C(=O)N(CCC)CC(=O)N(C)[C@H]2C/C=C\CCN(C2=O)[C@@H](Cc2ccc(C(F)F)cc2)C(=O)N(C)CC(=O)N[C@@H](CCc2ccc(C(F)(F)F)c(Cl)c2)C(=O)N2C[C@H](OC(C)C)C[C@H]2C(=O)N(C)C2(CCC2)C(=O)N(C)[C@@H](C(CC)CC)C(=O)N(C)[C@H](C(=O)N(C)C)CC(=O)N1C [PP3489] | – | – | 1.3 | 45 | – | – | – | AA (a compound having 20 or more is denoted as AA) | A (a compound having 10 or more and less than 20 is denoted as A)
6 | CCO[C@@H]1C[C@H]2C(=O)NC3(CCC3)C(=O)N(C)[C@@H](C(CC)CC)C(=O)N(C)[C@H](C(=O)N(C)C)CC(=O)N(C)[C@@H](CC3CCCC3)C(=O)N[C@@H]([C@@H](C)CC)C(=O)N(C)CC(=O)N(C)[C@H]3C/C=C\CCN(C3=O)[C@@H](CC3CCCCC3)C(=O)N(C)CC(=O)N[C@@H](CCc3cc(F)c(C(F)(F)F)c(F)c3)C(=O)N2C1 [PP1430] | 0.85 | 70.4 | – | – | – | A (a compound having 10 or more and less than 20 is denoted as A) | A (a compound having 10 or more and less than 20 is denoted as A) | – | –
7 | CCC[C@H]1C(=O)N[C@@H]([C@@H](C)CC)C(=O)N(C2CC2)CC(=O)N(C)[C@H]2C/C=C\CCN(C2=O)[C@@H](Cc2ccc(C)cc2)C(=O)N(C)CC(=O)N[C@@H](CCc2cc(F)c(C(F)(F)F)c(F)c2)C(=O)N2C[C@H](OCC)C[C@H]2C(=O)NC2(CC(C)(C)C2)C(=O)N(C)[C@@H](C(CC)CC)C(=O)N(C)[C@H](C(=O)N(C)C)CC(=O)N1C [PP2560] | – | – | – | 46.3 | 1 | – | – | AA (a compound having 20 or more is denoted as AA) | A (a compound having 10 or more and less than 20 is denoted as A)
8 | CCO[C@H](C)[C@@H]1NC(=O)[C@H](CC(C)C)N(C)C(=O)C[C@@H](C(=O)N(C)C)N(C)C(=O)[C@H](C2CCCC2)N(C)C(=O)C2(CC(C)(C)C2)NC(=O)[C@@H]2C[C@H](C)CN2C(=O)[C@H](CCc2ccc(C(F)(F)F)c(OC)c2)NC(=O)CN(C)C(=O)[C@H](Cc2ccc(C)cc2)N2CC/C=C\C[C@@H](C2=O)N(C)C(=O)[C@@H]2CCCN2C1=O [PP2418] | – | – | – | 132 | 0.97 | – | – | A (a compound having 10 or more and less than 20 is denoted as A) | B (a compound having 3 or more and less than 10 is denoted as B)
9 | CCO[C@@H]1C[C@H]2C(=O)NC3(CCC3)C(=O)N(C)[C@@H](C3CCCC3)C(=O)N(C)[C@H](C(=O)N3CCCC3)CC(=O)N(C)[C@@H](CC(F)F)C(=O)N[C@@H]([C@@H](C)CC)C(=O)N(C)CC(=O)N(C)[C@H]3C/C=C\CCN(C3=O)[C@@H](Cc3ccc(C(F)(F)F)cc3)C(=O)N(C)CC(=O)N[C@@H](CCc3cc(F)c(C(F)(F)F)c(F)c3)C(=O)N2C1 [PP1298] | 0.13 | 11.4 | – | – | – | AA (a compound having 20 or more is denoted as AA) | A (a compound having 10 or more and less than 20 is denoted as A) | – | –
10 | CCO[C@@H]1C[C@H]2C(=O)NC3(CCC3)C(=O)N(C)[C@@H](C3CCCC3)C(=O)N(C)[C@H](C(=O)N(C)C)CC(=O)N(C)[C@@H](CC3CC3)C(=O)N[C@@H]([C@@H](C)CC)C(=O)N(C)CC(=O)N(C)[C@H]3C/C=C\CCN(C3=O)[C@@H](CC3CCC(F)(F)CC3)C(=O)N(C)CC(=O)N[C@@H](CCc3cc(F)c(C(F)(F)F)c(F)c3)C(=O)N2C1 [PP1447] | 0.12 | 28.9 | – | – | – | A (a compound having 10 or more and less than 20 is denoted as A) | A (a compound having 10 or more and less than 20 is denoted as A) | – | –

Further lines, with some results ahead:

Row | Kd [2, 5] [nM] | IC50 [3, 6] [nM] | Kd ([2]; Single Cycle Kinetics) [nM] | IC50 ([3]; NCI-H441 cells, 4 days) [nM] | Kd ([2]; 1:1 binding model) [nM] | SMILES | NRAS /KRAS [1, 4] | HRAS /KRAS (HRAS wild-type protein; [7]) | NRAS /KRAS [1, 8] | HRAS /KRAS (HRAS wild-type protein; [9])
11 | – | – | 0.57 | 33.1 | – | CCO[C@@H]1C[C@H]2C(=O)NC3(CC(C)(C)C3)C(=O)N(C)[C@@H](C3CCCC3)C(=O)N(C)[C@H](C(=O)N(C)C)CC(=O)N(C)[C@@H]([C@H](C)OC)C(=O)N[C@@H]([C@@H](C)CC)C(=O)N(C3CC3)CC(=O)N(C)[C@H]3C/C=C\CCN(C3=O)[C@@H](Cc3ccc(C(F)(F)F)cc3)C(=O)N(C)CC(=O)N[C@@H](CCc3ccc(C(F)(F)F)c(OC)c3)C(=O)N2C1 [PP3173] | – | – | B (a compound having 3 or more and less than 10 is denoted as B) | B (a compound having 3 or more and less than 10 is denoted as B)
12 | – | – | 1.7 | 84.8 | – | CCC[C@H]1C(=O)N[C@@H]([C@@H](C)CC)C(=O)N2CCCC[C@H]2C(=O)N(C)[C@H]2C/C=C\CCN(C2=O)[C@@H](Cc2ccc(C)cc2)C(=O)N(C)CC(=O)N[C@@H](CCc2ccc(C(F)(F)F)c(Cl)c2)C(=O)N2C[C@H](OCC)C[C@H]2C(=O)N(C)C2(CCC2)C(=O)N(C)[C@@H](C2CCCC2)C(=O)N(C)[C@H](C(=O)N(C)C)CC(=O)N1C [PP3275] | – | – | B (a compound having 3 or more and less than 10 is denoted as B) | B (a compound having 3 or more and less than 10 is denoted as B)
13 | – | – | 3 | 79.5 | – | CCCO[C@@H]1C[C@H]2C(=O)NC3(CC(C)(C)C3)C(=O)N(C)[C@@H](C3CCCC3)C(=O)N(C)[C@H](C(=O)N(C)CC)CC(=O)N[C@@H](COCC)C(=O)N[C@@H]([C@@H](C)CC)C(=O)N3CCC[C@H]3C(=O)N(C)[C@H]3C/C=C\CCN(C3=O)[C@@H](Cc3ccc(C)cc3)C(=O)N(C)CC(=O)N[C@@H](CCc3ccc(C(F)(F)F)c(Cl)c3)C(=O)N2C1 [PP3431] | – | – | A (a compound having 10 or more and less than 20 is denoted as A) | A (a compound having 10 or more and less than 20 is denoted as A)
14 | – | – | 0.25 | 31.9 | – | CCCOC[C@@H]1NC(=O)C[C@@H](C(=O)N(C)CCC)N(C)C(=O)[C@H](C2CCCC2)N(C)C(=O)C2(CC(C)(C)C2)NC(=O)[C@@H]2C[C@@H](OCC)CN2C(=O)[C@H](CCc2ccc(C(F)(F)F)c(OC)c2)NC(=O)CN(C)C(=O)[C@H](Cc2ccc(C(F)(F)F)cc2)N2CC/C=C\C[C@@H](C2=O)N(C)C(=O)CN(C)C(=O)[C@H]([C@@H](C)CC)NC1=O [PP3449] | – | – | A (a compound having 10 or more and less than 20 is denoted as A) | A (a compound having 10 or more and less than 20 is denoted as A)
15 | – | – | – | 35.7 | 0.56 | CCC[C@H]1C(=O)N[C@@H]([C@@H](C)CC)C(=O)N(C)CC(=O)N(C)[C@H]2C/C=C\CCN(C2=O)[C@@H](Cc2ccc(C)cc2)C(=O)N(C)CC(=O)N[C@@H](CCc2ccc(Cl)c(Cl)c2)C(=O)N2C[C@H](OCC)C[C@H]2C(=O)NC2(CC(C)(C)C2)C(=O)N(C)[C@@H](CC2CCC2)C(=O)N(C)[C@H](C(=O)N(C)C)CC(=O)N1C [PP2755] | – | – | A (a compound having 10 or more and less than 20 is denoted as A) | A (a compound having 10 or more and less than 20 is denoted as A)
